Measured values: patent US5225566A, “Indazolanonyl derivative of benzopyran” (American Home Products Corporation, priority 1992, dated 1993)

What was measured:
[1] = test system: isolated rat bladder strips; assay: Inhibition of contractions in isolated rat bladder strips; parameters: species or system rat (Sprague-Dawley); conditions: for IC50: 0.5 h, additional 15 mM KCl, 30 min challenge
From the text: In addition, smooth muscle relaxing activity of the compounds of this invention was established in accordance with standard pharmaceutically accepted test procedures in representative compounds as follows:
Sprague-Dawley rats (150-200 g) are rendered unconscious by CO2 asphyxiation and then euthanized by cervical dislocation. The bladder is removed into warm (37 deg.C.) physiological salt solution (PSS) of the following composition (mM): NaCl, 118.4; KCl, 4.7; CaCl2, 2.5; […]; NaHCO3, 24.9; KH2 PO4, 1.2; glucose, 11.1; EDTA, 0.023; gassed with […]; pH 7.4. The bladder is opened and then cut into strips 1-2 mm in width and 7-10 mm in length. The strips are subsequently suspended in a 10 ml tissue bath under an initial resting tension of 1.5 g. The strips are held in place by two surgical clips one of which is attached to fixed hook while the other is attached to an isometric force transducer. […] The carbachol is then washed out and the tissue allowed to relax to its resting level of activity. Following 1 further 30 min period of recovery an additional 15 mM KCl are introduced into the tissue bath. This increase in KCl concentration results in a large increase in the amplitude of spontaneous contractions (and initiation of contractions in previously quiescent strips) superimposed upon a small increase in basal tone. Following stabilization of this enhanced level of contractile activity, incremental increases in the concentration of test compound or vehicle are introduced into the tissue bath. Contractile activity is measured for each compound or vehicle concentration during the last min of a 30 min challenge.
Isometric force developed by the bladder strips is measured using a […] to elicit 50% inhibition of pre-drug contractile activity (IC50 concentration) is calculated from this concentration-response curve. The maximum percentage inhibition of contractile activity evoked by a test compound is also recorded for concentrations of test compound<or equal to 30 uM.

[2] = test system: spontaneously hypertensive rats (SHR); assay: Blood pressure lowering and heart rate in conscious spontaneously hypertensive rats, oral; format: in vivo, rat (male Okamoto-Aoki SHR)
From the text: The blood pressure lowering activity of the compounds of this invention was established in accordance with standard pharmaceutically accepted test procedures in representative compounds as follows:
Male Okamoto-Aoki spontaneously hypertensive rats (SHR) ranging in weight from 250-400 g were anesthetized with halothane. Their left femoral arteries and veins were cannulated with polyethylene tubing of the appropriate size (i.d. 0.023", o.d. 0.038"). Each animal was placed in a Bollman cage, and the tail, along with two cannulas, was extended through a hole in one end of the cage. The tail was taped securely to a firm rubber board to prevent the rat from turning in its cage to dislodge the cannulas. The femoral arterial cannula was connected to a Statham pressure transducer which in turn was attached to a polygraph for recording arterial pressure and pulse rate. The pulse rate was considered to be the heart rate.
After the blood pressure has stabilized (usually 2 hours after cessation of the anesthesia), standard agonists were injected by the i.v. route. The doses administered were: isoproterenol 0.5 μg/kg, adrenaline 2.0 μg/kg, tyramine 200 μg/kg and angiotensin-I 0.25 μg/kg. The agonists were given in random order except that tyramine was never preceded by isoproterenol as the response to tyramine seemed to be blunted after a prior injection of isoproterenol. Enough time was allowed for the BP to return to preinjection levels before the test compound was administered by gastric lavage. The time of drug administration was designated as time zero. Heart rate and blood pressure were recorded at 5,10,15,30,45 and 60 minutes and hourly thereafter for a period of 4 hours after drug administration. At 1 and 2 hours post-drug the agonists were again injected at the same concentration and in the same order as during the control period.
For each dose, the maximum fall in blood pressure was given in mm Hg and also expressed as a percentage decrease compared to pretreatment control values. Linear regression on the maximum decrease in mean arterial blood pressure at each dose was used to calculate the ED30 (the dose which would lower mean arterial pressure by 30%). A decrease in mean arterial blood pressure of 30% reduces the blood pressure from the hypertensive to the normotensive range.

For `Cn1c2ccccc2c(=O)n1[C@@H]1c2cc(OC(F)(F)F)ccc2OC(C)(C)[C@H]1O` [Example 2, (-)-2-[(3S,4R)-3-Hydroxy-2,2-dimethyl-6-trifluoromethoxy-chroman-4-yl]-1-methyl-1,2-dihydro-indazol-3-one], the IC50 [1] was 9000 nM, the inhibition at 10 µM ([1]; at 10 μM, read-out: Inhibition of Force (%) at (x) μM) was 58% and the “Max Δ BP (mean arterial blood pressure)” value ([2]; 1.0 mg/kg p.o., 45 m) was -22 mm Hg. The “Max Δ BP, %” value ([2]; 1.0 mg/kg p.o., 45 m) was -13 ± 2%, the “Max Δ HR (heart rate)” value ([2]; 1.0 mg/kg p.o., 45 m) was “+17 beats/min” and the “Max Δ HR, %” value ([2]; 1.0 mg/kg p.o., 45 m) was “+4 ± 1%”.
`Cc1ccc2[nH]n([C@@H]3c4cc(OC(F)(F)F)ccc4OC(C)(C)[C@H]3O)c(=O)c2c1` [Example 8, (-)-2-[(3S,4R)-3-Hydroxy-2,2-dimethyl-6-trifluoromethoxy-chroman-4-yl]-5-methyl-1,2-dihydro-indazol-3-one] showed an IC50 [1] of 11 nM.
`CC1(C)Oc2ccc(OC(F)(F)F)cc2[C@@H](n2[nH]c3ccccc3c2=O)[C@@H]1O` [Example 1, (-)-2-[(3S,4R)-3-Hydroxy-2,2-dimethyl-6-trifluoromethoxy-chroman-4-yl]-1,2-dihydro-indazol-3-one] was tested, and the IC50 [1] was 44 nM, the inhibition at 0.3 µM ([1]; at 0.3 μM, read-out: Inhibition of Force (%) at (x) μM) was 100% and the “Max Δ BP (mean arterial blood pressure)” value ([2]; 0.1 mg/kg p.o., 15 m) was -41 mm Hg. The “Max Δ BP, %” value ([2]; 0.1 mg/kg p.o., 15 m) was -21 ± 3%, the “Max Δ HR (heart rate)” value ([2]; 0.1 mg/kg p.o., 15 m) was “+58 beats/min” and the “Max Δ HR, %” value ([2]; 0.1 mg/kg p.o., 15 m) was “+16 ± 6%”. The “Δ BP (mean arterial blood pressure)” value ([2]; 0.1 mg/kg p.o., 2 h) was -13 mm Hg, the “Δ BP, %” value ([2]; 0.1 mg/kg p.o., 2 h) was -7 ± 2% and the “Δ HR (heart rate)” value ([2]; 0.1 mg/kg p.o., 2 h) was -29 beats/min. For the same compound, the “Δ HR, %” value ([2]; 0.1 mg/kg p.o., 2 h) was -7 ± 3%, the “Max Δ BP (mean arterial blood pressure)” value ([2]; 0.3 mg/kg p.o., 30 m) was -102 mm Hg and the “Max Δ BP, %” value ([2]; 0.3 mg/kg p.o., 30 m) was -55 ± 2%. For the same compound, the “Max Δ HR (heart rate)” value ([2]; 0.3 mg/kg p.o., 30 m) was “+90 beats/min”, the “Max Δ HR, %” value ([2]; 0.3 mg/kg p.o., 30 m) was “+25 ± 6%” and the “Δ BP (mean arterial blood pressure)” value ([2]; 0.3 mg/kg p.o., 4 h) was -22 mm Hg. For the same compound, the “Δ BP, %” value ([2]; 0.3 mg/kg p.o., 4 h) was -12 ± 4%, the “Δ HR (heart rate)” value ([2]; 0.3 mg/kg p.o., 4 h) was “+36 beats/min” and the “Δ HR, %” value ([2]; 0.3 mg/kg p.o., 4 h) was “+10 ± 4%”. For the same compound, the “Max Δ BP (mean arterial blood pressure)” value ([2]; 1.0 mg/kg p.o., 45 m) was -112 mm Hg, the “Max Δ BP, %” value ([2]; 1.0 mg/kg p.o., 45 m) was -59 ± 4% and the “Max Δ HR (heart rate)” value ([2]; 1.0 mg/kg p.o., 45 m) was “+41 beats/min”. For the same compound, the “Max Δ HR, %” value ([2]; 1.0 mg/kg p.o., 45 m) was “+11 ± 12%”, the “Δ BP (mean arterial blood pressure)” value ([2]; 1.0 mg/kg p.o., 4 h) was -92 mm Hg and the “Δ BP, %” value ([2]; 1.0 mg/kg p.o., 4 h) was -47 ± 15%. The “Δ HR (heart rate)” value ([2]; 1.0 mg/kg p.o., 4 h) was -31 beats/min and the “Δ HR, %” value ([2]; 1.0 mg/kg p.o., 4 h) was -9 ± 13%.
With `CC1(C)Oc2ccc(OC(F)(F)F)cc2[C@H](n2[nH]c3ccccc3c2=O)[C@H]1O` [Example 7, (+)-2-[(3R,4S)-3-Hydroxy-2,2-dimethyl-6-trifluoromethoxychroman-4-yl]-1,2-dihydro-indazol-3-one] the “Max Δ BP (mean arterial blood pressure)” value ([2]; 0.1 mg/kg p.o., 5 m) was -12 mm Hg, the “Max Δ BP, %” value ([2]; 0.1 mg/kg p.o., 5 m) was -7 ± 1% and the “Max Δ HR (heart rate)” value ([2]; 0.1 mg/kg p.o., 5 m) was “+39 beats/min”. The “Max Δ HR, %” value ([2]; 0.1 mg/kg p.o., 5 m) was “+10 ± 3%”, the “Max Δ BP (mean arterial blood pressure)” value ([2]; 1.0 mg/kg p.o., 30 m) was -96 mm Hg and the “Max Δ BP, %” value ([2]; 1.0 mg/kg p.o., 30 m) was -51 ± 1%. For the same compound, the “Max Δ HR (heart rate)” value ([2]; 1.0 mg/kg p.o., 30 m) was “+114 beats/min”, the “Max Δ HR, %” value ([2]; 1.0 mg/kg p.o., 30 m) was “+31 ± 7%” and the “Δ BP (mean arterial blood pressure)” value ([2]; 1.0 mg/kg p.o., 4 h) was -20 mm Hg. The “Δ BP, %” value ([2]; 1.0 mg/kg p.o., 4 h) was -11 ± 2%, the “Δ HR (heart rate)” value ([2]; 1.0 mg/kg p.o., 4 h) was “+38 beats/min” and the “Δ HR, %” value ([2]; 1.0 mg/kg p.o., 4 h) was “+10 ± 4%”.
